Assay results published in patent publication US4874856A, “3-(substituted)propenyl-7-(aminothiazolylacetamido) ceph-3-em-4-carboxylic acids and esters thereof” (Bristol-Myers Company, priority 1987, dated 1989).
≈ marks a conversion by molar mass, not a printed value.

Tests used:
PCresistant S. aureus = experiment: In vitro MIC, two-fold serial agar dilution in Mueller-Hinton agar, GpIb strains; assay type: cell-based; conditions: Staphylococcus aureus, 5 strains, read-out: Geometric mean of MIC, GpIb
Protocol: The in vitro antibacterial activity of the parent cephalosporanic acids of Formula I wherein R^4 is hydrogen is shown in Table 1 in terms of geometric mean of the Minimum Inhibitory Concentrations (MIC's) which were determined by the two-fold serial agar dilution method in Mueller-Hinton agar against 25 strains of test organisms in five groups.
GpIb: PCresistant S. aureus

[1] = test system: clinically important pathogens; experiment: Comparison of in vitro antibacterial activities of Compound 29 and FK-482 (Table 6); assay type: cell-based; conditions: Thirty-seven organisms
From the text: Table 6 is a comparison of the in vitro antibacterial activities of Compound 29 and the vinyl homolog thereof FK-482 against clinically important pathogens. Thirty-seven organisms were more than 4-fold more susceptible to Compound 29 than to FK-482. FK-482 has the following formula and is described by Takaya, et al. in U.S. Pat. No. 4,559,334 patented Dec. 17, 1985 (filed Oct. 20, 1983). [drawing 14]
Mueller-Hinton agar Inoculum size; 10^6 cells/ml

SMILES: C/C=C\C1=C(C(=O)O)N2C(=O)[C@@H](NC(=O)/C(=N\O)c3csc(N)n3)[C@H]2SC1 [Compound 29, 7β-[(Z)-2-(2-aminothiazol-4-yl)-2-(hydroxyimino)acetamido]-3-[(Z)-prop-1-en-1-yl]-3-cephem-4-carboxylic acid]
- MIC (PCresistant S. aureus): 0.4 µg/mL (≈ 0.977 µM)
- more susceptible to Compound 29 than to FK-482 [1]: more than 4 fold
